With `CCOc1cc2c(cc1OCC)[C@@H]1CN(C)CC[C@@H]1N=C2c1ccc(NS(=O)(=O)c2ccc(C)cc2)cc1`, the melting point (as a rule, the temperature, or range, at which the solid turns liquid) is 267 to 268 °C.

As for `CC1CN(c2cc3c(cc2F)c(=O)c(C(=O)O)cn3C2CC2)CCN1CCC#N` (stereo not drawn), the melting point fell in the range of 203 to 206 °C.

With `c1cc(-c2cc3nccnc3[nH]2)cc(C2OCCCO2)c1`, the melting point was in the range of 205 to 206 °C.

`Oc1ccc2cc(-c3ccc(-c4ccccc4)[nH]3)ccc2c1` came in with a melting point of 210 °C.

In the case of `COc1ccc2c(C)c3c(c(-c4ccc(F)cc4)c2c1)CNC3=O`, the melting point fell in the range of 236 to 238 °C.

In turn, `CC#CCOc1ccc(S(=O)(=O)C(C(=O)NO)c2cccc3ccccc23)cc1` (stereo not drawn) gave a melting point of 213 °C.

Turning to `O=C(Oc1ccccc1)n1c(=O)c(F)cn(C2CC(OCc3ccccc3)C(CO)O2)c1=O` (stereo not drawn), the melting point was 110 to 112 °C.

Molecule `COc1ccc(C(=O)c2c(N)sc3c2CCCN3C(=O)OCc2ccccc2)cc1OC` had a melting point of 177 to 178 °C.

As for `CC(C)N(C(=S)Nc1ccc(NC(=S)N(C(C)C)C(C)C)cc1)C(C)C`, the melting point is 185 °C.

In turn, `N#Cc1c2ccccc2c(-c2ccc(O)cc2)c2c1sc1ccccc12` returned a melting point of 307 to 309 °C.

The molecule `CC(N)=C(C(=O)OC(C)(C)C)C(=S)NC(=O)c1ccccc1` came in with a melting point of 107 to 110 °C.

As for `O=C1C2CN(CCc3ccc(Cl)cc3)CC2C(=O)N1c1cc(Cl)cc(Cl)c1` (stereo not drawn), the melting point worked out at 115 °C.

Turning to `N=C(N)Nc1nc(CSCCNc2c(NCc3ccncc3)c(=O)c2=O)cs1`, the melting point was 172 to 175 °C.

On to `NC(Cc1ccccc1F)=NO`, for which the melting point was 85 to 87 °C.

In turn, `CC(C)(C)OC(=O)NC(CO)COc1noc2ccc(NC=O)cc12` (stereo not drawn) showed a melting point of 104 to 105 °C.

Consider `COCc1c(Cl)nnc(Cl)c1OC`, for which the melting point fell in the range of 28 to 32 °C.

As to `OCc1cccc2cc3ccccc3cc12`, the melting point was in the range of 124 to 125 °C.

For `Cc1cc(NC(=O)Oc2ccc([N+](=O)[O-])cc2)cc(C(F)(F)F)c1`, the melting point lay within 136 to 138 °C.

In turn, `O=[N+]([O-])c1ccc2c(c1)COC(c1ccccc1F)O2` (stereo not drawn) yielded a melting point of 137 to 138 °C.

Molecule `CCOC(=O)C(Cc1ccc(N)s1)NC(=O)OC(C)(C)C` (racemic) displayed a melting point of 132 °C.

Take `CN(C(=O)OCc1ccccc1)[C@@H](CC(N)=O)C(=O)N[C@@H](Cc1ccccc1)[C@H](O)C(=O)N1CCC[C@H]1C(=O)NC(C)(C)C`: the melting point is 100 to 103 °C.

As for `CCOc1ccc(-c2nc(-c3ccc(OS(=O)(=O)C(F)(F)F)c(C(=O)OC)c3)cs2)cc1OCC`, the melting point fell in the range of 112 to 113 °C.

With `Cc1cc2c(c(C)c1O)CCC(C)(C#N)O2` (stereo not drawn), the melting point was determined as 135 °C.

In the case of `COCC(C)(Oc1ccc(CC(=O)Nc2cc(C)cc(C)c2)cc1)C(=O)O` (stereo not drawn), the melting point lay within 170 to 172 °C.

For the molecule `COc1ccc(OC)c(OC)c1OC`, the melting point lay in the range of 84 to 85 °C.

`Cc1c(Br)ccc(N)c1C#N`: the melting point fell in the range of 111 to 113 °C.

For the molecule `CS(=O)(=O)NC(=O)c1cc(Oc2c(Cl)cc(Cl)cc2Cl)ccc1[N+](=O)[O-]`, the melting point was found to be 228 °C.

`COC(=O)COc1ccc(-c2c(Br)ccc3sc4ccccc4c23)cc1`: the melting point stood at 122 °C.

`CCCN(CCCN1C(=O)c2ccccc2S1(=O)=O)C1CCc2cccc(OC)c2C1` (stereo not drawn) showed a melting point of 131 °C.

In turn, `O=C(CCCCCNC(=O)c1ccccc1S)Nc1cccnc1` returned a melting point of 110 to 112 °C.

`CC(=O)c1cnc2c(NC(=O)c3c(Cl)cccc3Cl)cccc2c1N1CCOCC1` returned a melting point of 231 to 233 °C.

For the molecule `COc1cccc2c(Nc3ccccc3C)nc(N)nc12`, the melting point fell in the range of 218 to 220 °C.

Consider `O=C1Nc2ccc(-c3cccc(Cl)c3)cc2C2(CCCC2)O1`, for which the melting point lay within 140 to 145 °C.

On to `COc1cc(C)c(C(=O)c2c(C)cccc2O)c(OC)c1OC`, for which the melting point is 82 to 84 °C.

In the case of `COc1ccc2c(c1)S(=O)(=O)C(C#N)=C(C)N2`, the melting point was 307 to 308 °C.

On to `COc1ccc(-n2c(-c3ccc(S(N)(=O)=O)cc3)cc(C)c2Cl)cc1`, for which the melting point was in the range of 155 to 156 °C.

`COc1cccc(Cc2nnc(NCCSCc3nc[nH]c3C)[nH]c2=O)c1` returned a melting point of 203 to 204 °C.

Take `O=C(OCCCCCCO)c1ccc(Oc2c3c(c(Oc4ccc(C(=O)OCCCCCCO)cc4)c4ccccc24)C(=O)c2ccccc2C3=O)cc1`: the melting point lay in the range of 172 to 173 °C.

Molecule `O=c1nc(C2CC2)c2cc(-c3cccc(Cl)c3)ccc2[nH]1` displayed a melting point of 189 to 190 °C.

`CCCCn1c(=O)c(C(=O)Nc2ccncc2)c(O)c2sccc21` gave a melting point of 212 to 216 °C.

For `CN(C)c1ccc(C2(Oc3ccccc3)OC(=O)c3ccc(N(C)C)cc32)cc1` (stereo not drawn), the melting point lay in the range of 158 to 159 °C.

As for `O=C(NCc1ccccc1)c1ccnc(-n2ccc(-c3ccccc3)cc2=O)c1`, the melting point is 162 to 163 °C.

Turning to `CC1(C)CC(OC(=O)CCCCCCCCC(=O)OC2CC(C)(C)PC(C)(C)C2)CC(C)(C)P1` (stereo not drawn), the melting point fell in the range of 58 to 63 °C.

`CCCCCCCCCCCc1cc2cc(C(=O)OCC)ccc2[nH]1` showed a melting point of 76 to 77 °C.

`CSc1nc2ccc(Cl)cc2cc1C=O` gave a melting point of 154 to 155 °C.

As to `CCOC(=O)CCCc1ccc(N[C@@H](CCC(N)=O)C(=O)O)cc1`, the melting point was in the range of 179 to 180 °C.

As to `Cc1ccc2[nH]c(=O)oc2c1`, the melting point lay within 144 to 145 °C.

`COc1cc2c3c(c1)[nH]c(=S)n3CCC2` yielded a melting point of 188 to 192 °C.

The molecule `O=C1OCc2cc([N+](=O)[O-])c(Oc3ccc(F)cc3F)cc21` had a melting point of 164 to 166 °C.

`CCCCSc1cc(C(=O)O)cc(N)c1Oc1ccccc1` had a melting point of 131 to 132 °C.

On to `Cn1c(=O)c(=O)[nH]c2cc([N+](=O)[O-])c([N+](=O)[O-])cc21`, for which the melting point lay within 370 to 380 °C.

`COC1CSC2=C(SC1)C(OC(=O)N1CCN(C)CC1)N(c1ccc(Cl)cn1)C2=O` (stereo not drawn) registered a melting point of 197 °C.

Regarding `CC(CC(=O)O)NC(=O)OCC1c2ccccc2-c2ccccc21` (stereo not drawn), the melting point fell in the range of 135 to 143 °C.

For `CCOC(=O)C1Nc2cc(Cl)c(Cl)cc2NC1=O` (stereo not drawn), the melting point was more than 300 °C.

`CN(C)C(=O)c1cnn(C)c1C(=O)Nc1ccn2nc(N3CCOCC3)nc2c1` yielded a melting point of 237 to 240 °C.

On to `COC(=O)C(=O)c1ccc(OCCOc2ccc3ccccc3c2)cc1C`, for which the melting point was in the range of 118 to 120 °C.

`OC(=S)CCCCCCn1c(-c2ccccc2)nc(-c2ccccc2)c1-c1ccccc1` yielded a melting point of 166 to 169 °C.

The molecule `O=C1c2ccccc2-c2[nH]nc(-c3ccc(Cl)cc3)c21` returned a melting point of more than 330 °C.

`CCOCc1nc2c(N)nc3ccccc3c2n1CCCCS(N)(=O)=O` displayed a melting point of 155 to 158 °C.

Take `CN1C(c2ccc(Br)cc2)C2C(=O)N(Cc3ccc4c(c3)OCO4)C(O)C2C1(C)C` (stereo not drawn): the melting point was in the range of 158 to 159 °C.

`O=S1(=O)c2cccc3cccc(c23)N1CCCN1CCN(c2cccc(O)c2)CC1` had a melting point of 175 °C.

For `O=C(O)c1cc(Cl)c(C(=O)O)c([N+](=O)[O-])c1Cl`, the melting point was in the range of 287 to 288 °C.

In turn, `N#CC(C(=O)Nc1cccnc1)C(=O)c1nn(-c2ccccc2)c2c1COc1ccccc1-2` (stereo not drawn) showed a melting point of 280 to 282 °C.

For `Cc1ccc(OC2CCN(C(=O)C(=O)Nc3ccc4c(c3)CC(=O)N4)CC2)cc1`, the melting point lay in the range of 109 to 112 °C.

`COc1cc(I)ccc1C(=O)Nc1ccc(OC)c(N2CCN(C)CC2)c1` came in with a melting point of 168 to 170 °C.

`Nc1ncc(C#Cc2ccc(Cl)cc2)c(OCCOCCO)n1` had a melting point of 142 to 143 °C.

Turning to `COc1ccc2cc3c(c(-c4ccc5c(c4)OCO5)c2c1)CNC3=O`, the melting point was 259 to 262 °C.

`CCCCCCCCCCCCCCCCOc1nc2ccc(C)cc2c(=O)o1`: the melting point is 67 °C.

`O=c1cc(-c2ccc(O)c(Br)c2)oc2ncccc12` showed a melting point of 267 to 272 °C.

`CN(C(=O)CCS(C)=O)c1cnc(-c2cncc(F)c2)s1` (stereo not drawn) had a melting point of 152 to 154 °C.

For `Cn1c(=O)[nH]c(=O)c2c1ncn2CC(=O)Nc1ccc(C2CCCC2)cc1`, the melting point was in the range of 295 to 300 °C.

`O=C1N[C@H](Cc2cccc(C(F)(F)F)c2)[C@H](c2ccc(F)cc2)O1` (racemic) came in with a melting point of 177 to 178 °C.

`CCc1[nH]n(C2CCCC2)c2nc(=S)[nH]c(=O)c1-2` showed a melting point of 248 to 250 °C.

`CN(C)c1ccc(NS(=O)(=O)c2cccc(-c3ccc(F)cc3)c2)cc1` yielded a melting point of 158 to 160 °C.

The molecule `Cc1nc2c(O)c(CCC(=O)c3ccccc3OCc3ccccc3)c(C(=O)N(C)C)cc2n1C` gave a melting point of 193 to 194 °C.

For `C#CC[C@@H](NC(=O)OC(C)(C)C)c1nc2cccnc2c(=O)n1Nc1ccccc1`, the melting point lay in the range of 108 to 110 °C.

In turn, `CCCCCc1ccc(C(=O)Cc2cccc(C#N)c2)cc1` registered a melting point of 73 °C.

`CC(=O)NC1c2cc3nonc3cc2OC(C)(C)C1OC(C)=O` (stereo not drawn) showed a melting point of 236 to 238 °C.

For the molecule `O=C1C2=C(CCCC2)C(=O)N1c1cc2c(cc1F)nnn2-c1ccccc1O`, the melting point was 274 to 275 °C.

`Cc1ccc(-c2ccccc2C(=O)N(C)NC(N)=O)cc1` displayed a melting point of 217 to 218 °C.

With `Cc1cc(-c2nnn[nH]2)cc2c(=O)c3cccnc3oc12`, the melting point lay in the range of 290 to 291 °C.

`CCn1cc(C(=O)O)c(=O)c2cc3c(nc21)CCO3` had a melting point of 292 °C.

For the molecule `O=C(NOC(=O)Oc1ccccc1)Oc1ccccc1`, the melting point lay in the range of 80 to 82 °C.

The molecule `CC(C)(C)NC(=O)[C@@H]1[C@@H](OC(=O)c2ccccc2)CCN1C(=O)OC(C)(C)C` registered a melting point of 132 to 134 °C.

`COC(=O)c1cc2c([nH]c1=O)CCCCCC2` registered a melting point of 220 to 224 °C.

The molecule `CN1C(=O)C2c3c([nH]c4ncccc34)-c3nccn3C2C1=O` (stereo not drawn) had a melting point of 222 to 224 °C.

For the molecule `C#CCOc1cc(C(=O)O)cc(Cl)c1OCC#C`, the melting point lay within 158 to 159 °C.

Molecule `CC(C)(CCCCOCCCCC(C)(C)C(=O)O)C(=O)O` registered a melting point of 49 to 51 °C.

The values are drawn from a melting point compilation (Tetko et al.; mined from patent text by program, amines drawn as free bases though some values may be those of a salt).
